Assay [1] deals with MCF-7 cells. Briefly: MTT cytotoxicity assay, MCF-7. The conditions noted are these: Homo sapiens, MCF7, MCF-7, 24 h. The assay is classed as cell-based. The procedure: (§1) Following an extensive review of the literature, we selected human breast cancer (MCF-7, MDA-MB-231) and lung cancer (A549) cell lines to evaluate the anticancer potential of the synthesized compounds, and some compounds with good anti-proliferation activity were again tested to evaluate their cytotoxic potential on A-549, MCF-7, and MDA-MB-231. The same were also tested on one non-cancerous/normal (HEK-293) cell line. All the cell lines for the required screening were developed in a suitable medium comprising 10% FBS and 2mM L-glutamine. Cancerous and non-cancerous/normal cell lines were selected for the cell proliferation and cytotoxicity assay and maintained with 5% CO2 at 37 °C in a CO2 incubator with 100% relative humidity for one complete day before the addition of experimental drugs.
(§2) MTT, a well-known colorimetric cytotoxic assay was performed to validate the cytotoxicity of the selected compounds—VI(b), VI(c), VI(e), and VI(i)—against three different human tumor cell lines [MCF-7, MDA-MB-231, A549] and a normal cell line [HEK293]. The seeding of 1 × 10^4 cells onto each well was executed in a 96-well plate in triplicate, and to keep the cells viable, overnight incubation was undertaken at 37 °C with 5% CO2 in a CO2 incubator. […] The microplate reader was set at 570 nm to measure the absorbance of each well.
(Tetrazolium assays rely on reduction of a dye to a coloured formazan, in cell work by metabolically active cells.)

Another assay concerns MDA-MB-231 cells. In words: MTT cytotoxicity assay, MDA-MB-231. It is filed as cell-based. As to conditions: Homo sapiens, MDA-MB-231, 24 h. The procedure:
as §1, §2

In another assay the test system is A549 cells. In words: MTT cytotoxicity assay, A549. It is filed as cell-based. The conditions noted are these: Homo sapiens, A549, 24 h. The procedure: as §1, §2
Assay [2] has as its system MCF-7 cells. In words: Apoptosis study, acridine orange/ethidium bromide dual staining. It is filed as cell-based, human. As to conditions: AO/EtBr staining, MCF-7, 40, 60, 80 µg/mL. The procedure: The staining technique was performed to determine changes in cellular morphology as acridine orange is a cell-permeable dye; i.e., it can enter inside the nucleus and subsequently intercalate with the DNA of both live and apoptotic cells an then emit a green fluorescence. On the other hand, ethidium bromide can only cross the plasma membrane of compromised or late apoptotic cells and bind with their DNA, subsequently radiating an orange to red fluorescence. Therefore, to assess alterations in the morphology of cells, MCF-7 cells were planted in a 12-well plate at a density of 5 × 10^4 cells/well and incubated in humidified air for 24 h at 37 °C. Following cell seeding, MCF-7 cells were exposed to compound VI(i) with at lower (40 µg/mL), IC50 (60 µg/mL), and higher (80 µg/mL) concentrations. Following this, the incubated cells were washed with a buffer (phosphate-buffered saline), and dual staining was executed with acridine orange and ethidium bromide. Then, a 12-well cell culture plate was kept at 37 °C for 30 min of incubation. Consequently, cells were lightly rinsed with phosphate-buffered saline. Following this, pictures were obtained in the inverted fluorescence microscope using the red and green channels for both the dyes.

The subject of assay [3] is MCF-7 cells. Briefly: ROS detection with DCFH-DA. The conditions noted are these: MCF-7, 40, 60, 80 µg/mL, vs control. It is filed as cell-based, human. An excerpt: ROS are commonly produced as a result of the cellular metabolic routes, and they play a key role as a secondary messenger in the healthy physiological system, but elevated quantities of ROS are the reason for various pathological conditions. To assess oxidative stress (ROS)-mediated apoptosis, DCFH-DA (2′,7′-dichlorodihydrofluorescein diacetate) dye was used as ROS transforms DCFH to DCF, producing a green fluorescence. The intensity of green fluorescence emitted is directly correlated with the amount of ROS produced by the cells in the treatment groups. Briefly, MCF-7 cells were passaged then seeded (5 × 10^4 cells /well) in a 12-well plate and exposed to all three (lower, IC50, higher) concentrations of compound VI(i); then, overnight incubation was undertaken with 5% carbon dioxide at 37 °C. To assess the generated ROS, treated cells (MCF-7) were washed with PBS. Staining was undertaken using DCFH-DA and photographed with the help of a fluorescence microscope (inverted) in the green and phase contrast channels.

In assay [4] the test system is MCF-7 cells. In words: Cell cycle analysis, propidium iodide flow cytometry. The assay is classed as cell-based, human. The procedure: Apoptosis can also be determined based on the content of the DNA allocation at different stages of cell cycle distribution. The cultured MCF-7 cell line was washed, trypsinized, and seeded, followed by compound VI(i) exposure in a 6-well cell culture plate. Following this, cells were harvested using 1mM EDTA; then, to fix the cells, ice-cold ethanol was used, and overnight, cells were kept at −20 °C. Afterwards, cells were maintained at room temperature, followed by centrifugation at 3000 RPM for 7 min. Then, staining was conducted using propidium iodide, RNase A, and Triton-X in a buffer (phosphate-buffered saline). It was then analyzed using a flow cytometer.
A general note: In flow cytometry, cells or beads pass a laser one at a time.

In a further assay the target is T1, HDAC1 (Homo sapiens, UniProt Q13547).
T1 construct: The HeLa nuclear extract was used as a source of HDAC activity; host or cells: HeLa (nuclear extract / cells)
Briefly: HDAC inhibition assay (color de lys ELISA kit), HDAC1. The assay is classed as biochemical. As to conditions: HeLa nuclear extract as source of HDAC activity. The procedure: SAHA served as the assay’s positive control. The HeLa nuclear extract was used as a source of HDAC activity. The trypsinized HeLa cells were tallied, put into 96-well microtiter plates, and nurtured. Samples and the standard were placed in wells at a concentration of 100 µL. The culture environment was maintained as per the procedure. 3,3′,5,5′-tetramethylbenzidine (TMB) was included for visualization. Finally, 50 µL of halt solution was smeared. The samples and different SAHA concentrations (0.01, 0.1, 1, 10 μM) were introduced to the appropriate well and left for 72 h. BioTek Epoch (Winooski, VT, USA) microplate reader was used to quantify optical density at 450 nm. The Graph Pad Prism 5 helped to determine the IC50 values.
For orientation: An ELISA detects its analyte on a solid surface through an enzyme-linked reagent.

[5] abbreviates: MCF-7, IC50 concentration (60 µg/mL).
Where [6] appears, read: MCF-7, higher concentration (80 µg/mL).
Setting [7] is: MCF-7, lower concentration (40 µg/mL).

Structures are written as SMILES. pIC50: −log10 of the molar value. In brackets after ≈: the same amount, converted by molar mass.

For orientation: IC50 means the concentration needed to halve the response being measured. Low readings indicate inhibition by little substance, high ones a need for much substance. Broadly, the pIC50 is the negative decadic logarithm of the IC50, by convention in mol/L. A higher pIC50 goes with a low IC50.

T1 sequence (Q13547 whole entry): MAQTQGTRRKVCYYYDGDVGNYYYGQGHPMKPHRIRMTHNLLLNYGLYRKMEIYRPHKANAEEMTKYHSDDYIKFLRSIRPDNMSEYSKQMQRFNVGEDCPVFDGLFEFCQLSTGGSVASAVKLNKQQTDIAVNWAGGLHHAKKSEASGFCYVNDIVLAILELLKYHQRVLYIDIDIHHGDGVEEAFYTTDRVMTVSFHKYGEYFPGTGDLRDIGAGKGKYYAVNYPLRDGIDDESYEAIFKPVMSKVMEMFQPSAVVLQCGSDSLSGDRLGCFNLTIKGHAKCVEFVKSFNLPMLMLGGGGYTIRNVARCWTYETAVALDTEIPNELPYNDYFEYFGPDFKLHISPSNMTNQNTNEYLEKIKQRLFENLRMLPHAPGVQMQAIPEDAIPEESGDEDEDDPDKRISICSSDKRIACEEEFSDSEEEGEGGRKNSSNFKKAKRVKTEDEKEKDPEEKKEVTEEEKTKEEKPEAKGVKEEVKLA

As to `COc1ccc(-c2cnn(CCCCCC(=O)NO)n2)cc1` [VI(i), N-Hydroxy-6-(4-(4-methoxyphenyl)-2H-1,2,3-triazol-2-yl)hexanamide], the IC50 with MCF-7 cells [1] was 60 µg/mL (≈ 197 µM); in the assay on MDA-MB-231 cells it was more than 100 µg/mL; in the assay with A549 cells, more than 100 µg/mL. In addition, the “apoptosis induction (cell morphology)” value in the assay with MCF-7 cells [2] is “effectively trigger the apoptotic mode of cell death in breast cancer cells in a concentration-dependent manner”. Further, the ROS level entry in the assay on MCF-7 cells [3] was “significantly increased in concentration-dependent manner”. The figures for the “increase in cells arrested in G2/M phase compared to control” value in the assay with MCF-7 cells [4] (setting [5]), in the assay with MCF-7 cells [4] (setting [6]) and in the assay with MCF-7 cells [4] (setting [7]) were 15.91%, 19.35% and 11.98%, respectively. The “increase in cells arrested in S phase compared to control” value in the assay on MCF-7 cells [4] (setting [5]) stood at 6.9%; with MCF-7 cells [4] (setting [6]) it was 6.07%; in the assay on MCF-7 cells [4] (setting [7]), 5.92%. Besides, the pIC50 at HDAC1 is 5.00.
